Source: PMC3172044 (Biopharmaceutics & drug disposition, 2010)
Values belong to the molecule of their own block, whether it stands above or below them.

How the values were obtained:
human liver microsomes [1] = system: human liver microsomes
human liver microsomes [2] = test: Chemical inhibition of GLB metabolite formation in human liver microsomes; details: GLB 1.25 μM; for effect on the formation of any of the four metabolites (M1, M2b, M4, M5): SUL […], QUI 0.45 μM, TTEPA 20 μM
[3] = cited from earlier work
CYP3A = details: cited from earlier work
[4] = cited from earlier work; remark: listed apart in the source
[5] = read-out: apparent Km values for GLB metabolism; cited from earlier work
CYP2C19 = details: cited from earlier work
[6] = substrate: COc1ccc(Cl)cc1C(=O)NCCc1ccc(S(=O)(=O)NC(=O)NC2CCCCC2)cc1; test: cells, lysate or membranes named; details: substrate depletion, 37.0 °C
[7] = 4 μM montelukast, no inhibitor = 100%
[8] = 1 μM ketoconazole, no inhibitor = 100%
[9] = value stated to be within the range
[10] = other: CYP3A5 supersomes 30 pmol/ml
[11] = other: CYP2C8 supersomes 40 pmol/ml
[12] = other: CYP2C19 supersomes 30 pmol/ml

relative metabolite formation in human liver microsome incubations (human liver microsomes [1]): major metabolite formed
Molecule: an ethyl hydroxycyclohexyl glyburide [M5]

Molecule: Nc1ccc(S(=O)(=O)Nc2ccnn2-c2ccccc2)cc1 [Sulfaphenazole, sulfaphenazole]
effect on the formation of any of the four metabolites (M1, M2b, M4, M5) (human liver microsomes [2]): no significant effects

Molecule: C=C[C@H]1C[N@@]2CC[C@H]1C[C@@H]2[C@@H](O)c1ccnc2ccc(OC)cc12 [quinidine]
effect on the formation of any of the four metabolites (M1, M2b, M4, M5) (human liver microsomes [2]): no significant effects

Molecule: CC(C)(O)c1ccccc1CC[C@@H](SCC1(CC(=O)O)CC1)c1cccc(/C=C/c2ccc3ccc(Cl)cc3n2)c1 [montelukast]
formation of M1, % of the controls (human liver microsomes [2]; [7]): approximately 50%
formation of M4, % of the controls (human liver microsomes [2]; [7]): ~65%

peak area of metabolite as % of that of M5 (human liver microsomes [1]): ~43%
Molecule: COc1ccc(Cl)cc1C(=O)NCCc1ccc(S(=O)(=O)NC(=O)N[C@H]2CCC[C@@H](O)C2)cc1 (relative stereo) [M2b, 3-cis-hydroxycyclohexyl glyburide (axial)]
pharmacological activity [3]: pharmacologically active

Molecule: CC(=O)N1CCN(c2ccc(OCC3COC(Cn4ccnc4)(c4ccc(Cl)cc4Cl)O3)cc2)CC1 (stereo not drawn) [ketoconazole]
formation of M1, % of the controls (human liver microsomes [2]; [8]): approximately 60%
formation of M4, % of the controls (human liver microsomes [2]; [8]): ~5%
formation of M5, % of the controls (human liver microsomes [2]; [8]): ~4%

peak area of metabolite as % of that of M5 (human liver microsomes [1]): ~16%
Molecule: COc1ccc(Cl)cc1C(=O)NCCc1ccc(S(=O)(=O)NC(=O)NC2CCCC(O)C2)cc1 (stereo not drawn) [M3, 3-trans-hydroxycyclohexyl glyburide]

peak area of metabolite as % of that of M5 (human liver microsomes [1]): approximately 56%
Molecule: COc1ccc(Cl)cc1C(=O)NCCc1ccc(S(=O)(=O)NC(=O)N[C@H]2CC[C@H](O)CC2)cc1 [M1, 4-trans-hydroxycyclohexyl glyburide]
pharmacological activity [3]: pharmacologically active

Molecule: COc1ccc(Cl)cc1C(=O)NCCc1ccc(S(=O)(=O)NC(=O)NC2CCCCC2)cc1 [glyburide, Glyburide]
peak plasma concentration ([4]; after a single oral dose of 20 mg GLB): approximately 1.25 μM
free therapeutic plasma concentration [4, 9]: approximately 1.25 nM
total therapeutic plasma concentration [4, 9]: ~0.125 µM
Km [5]: 5 to 11 µM

Molecule: S=P(N1CC1)(N1CC1)N1CC1 [thioTEPA, triethylenethiophosphoramide]
effect on the formation of any of the four metabolites (M1, M2b, M4, M5) (human liver microsomes [2]): no significant effects

peak area of metabolite as % of that of M5 (human liver microsomes [1]): ~8%
Molecule: COc1ccc(Cl)cc1C(=O)NCCc1ccc(S(=O)(=O)NC(=O)N[C@@H]2CCCC[C@H]2O)cc1 (relative stereo) [M4, 2-trans-hydroxycyclohexyl glyburide]

Molecule: COc1ccc2[nH]c([S+]([O-])Cc3ncc(C)c(OC)c3C)nc2c1 (stereo not drawn) [omeprazole]
Ki (CYP2C19): 3 µM

B1: human CYP3A5 (Homo sapiens) (protein)
chain: MDLIPNLAVETWLLLAVSLVLLYLYGTRTHGLFKRLGIPGPTPLPLLGNVLSYRQGLWKFDTECYKKYGKMWGTYEGQLPVLAITDPDVIRTVLVKECYSVFTNRRSLGPVGFMKSAISLAEDEEWKRIRSLLSPTFTSGKLKEMFPIIAQYGDVLVRNLRREAEKGKPVTLKDIFGAYSMDVITGTSFGVNIDSLNNPQDPFVESTKKFLKFGFLDPLFLSIILFPFLTPVFEALNVSLFPKDTINFLSKSVNRMKKSRLNDKQKHRLDFLQLMIDSQNSKETESHKALSDLELAAQSIIFIFAGYETTSSVLSFTLYELATHPDVQQKLQKEIDAVLPNKAPPTYDAVVQMEYLDMVVNETLRLFPVAIRLERTCKKDVEINGVFIPKGSMVVIPTYALHHDPKYWTEPEEFRPERFSKKKDSIDPYIYTPFGTGPRNCIGMRFALMNMKLALIRVLQNFSFKPCKETQIPLKLDTQGLLQPEKPIVLKVDSRDGTLSGE
Km [6, 10]: 4.2 ± 1.5 µM
kcat [6, 10]: 0.0317 ± 0.0122 s⁻¹
kcat/Km [6, 10]: 7670 ± 833 M⁻¹ s⁻¹

B2: human CYP2C8 (Homo sapiens) (protein)
chain: MEPFVVLVLCLSFMLLFSLWRQSCRRRKLPPGPTPLPIIGNMLQIDVKDICKSFTNFSKVYGPVFTVYFGMNPIVVFHGYEAVKEALIDNGEEFSGRGNSPISQRITKGLGIISSNGKRWKEIRRFSLTTLRNFGMGKRSIEDRVQEEAHCLVEELRKTKASPCDPTFILGCAPCNVICSVVFQKRFDYKDQNFLTLMKRFNENFRILNSPWIQVCNNFPLLIDCFPGTHNKVLKNVALTRSYIREKVKEHQASLDVNNPRDFIDCFLIKMEQEKDNQKSEFNIENLVGTVADLFVAGTETTSTTLRYGLLLLLKHPEVTAKVQEEIDHVIGRHRSPCMQDRSHMPYTDAVVHEIQRYSDLVPTGVPHAVTTDTKFRNYLIPKGTTIMALLTSVLHDDKEFPNPNIFDPGHFLDKNGNFKKSDYFMPFSAGKRICAGEGLARMELFLFLTTILQNFNLKSVDDLKNLNTTAVTKGIVSLPPSYQICFIPV
Km [6, 11]: 7.7 ± 2.3 µM
kcat [6, 11]: 0.0417 ± 0.0133 s⁻¹
kcat/Km [6, 11]: 5330 ± 500 M⁻¹ s⁻¹

B3: human CYP2C19 (Homo sapiens) (protein)
chain: MDPFVVLVLCLSCLLLLSIWRQSSGRGKLPPGPTPLPVIGNILQIDIKDVSKSLTNLSKIYGPVFTLYFGLERMVVLHGYEVVKEALIDLGEEFSGRGHFPLAERANRGFGIVFSNGKRWKEIRRFSLMTLRNFGMGKRSIEDRVQEEARCLVEELRKTKASPCDPTFILGCAPCNVICSIIFQKRFDYKDQQFLNLMEKLNENIRIVSTPWIQICNNFPTIIDYFPGTHNKLLKNLAFMESDILEKVKEHQESMDINNPRDFIDCFLIKMEKEKQNQQSEFTIENLVITAADLLGAGTETTSTTLRYALLLLLKHPEVTAKVQEEIERVIGRNRSPCMQDRGHMPYTDAVVHEVQRYIDLIPTSLPHAVTCDVKFRNYLIPKGTTILTSLTSVLHDNKEFPNPEMFDPRHFLDEGGNFKKSNYFMPFSAGKRICVGEGLARMELFLFLTFILQNFNLKSLIDPKDLDTTPVVNGFASVPPFYQLCFIPV
Km [6, 12]: 15.1 ± 2.3 µM
kcat [6, 12]: 0.16 ± 0.025 s⁻¹
kcat/Km [6, 12]: 10500 ± 333 M⁻¹ s⁻¹
